IC50 data for 12 compounds are collected here from patent US10947251B2, “Therapeutic compounds and methods of use thereof” (GENENTECH, INC., priority 2018, dated 2021).

In assay [1] the target is T1, hNav1.7 (Homo sapiens (Human), UniProt Q15858). Kind of assay: Electrophysiological assay (EP), voltage clamp on Syncropatch 384PE. It is filed as cell-based. Particulars: CHO cells expressing Nav1.7, holding potential −50 mV, 7.5 min compound incubation; read-out: EP_SP hNav1.7 EVO IC50. The source says:
Example 39C. Electrophysiological Assay (EP) (In Vitro Assay)
Patch voltage clamp electrophysiology allows for the direct measurement and quantification of block of voltage-gated sodium channels (NaV's), and allows the determination of the time- and voltage-dependence of block which has been interpreted as differential binding to the resting, open, and inactivated states of the sodium channel (Hille, B., Journal of General Physiology (1977), 69: 497-515).
The following voltage clamp electrophysiology studies were performed on representative compounds using cells heterologously expressing Nav1.7 or Nav1.5 channels. cDNAs for Nav1.7 (NM_002977) and Nav1.5 (AC137587) were stably expressed in Chinese Hamstr Ovary (CHO) cells and CHL (Chinese Hamster Lung) cells respectively. Sodium currents were measured in the whole-cell configuration using Syncropatch 384PE (Nanlon Technologies, Germany). 1NPC®-384 chips with custom medium resistance and single hole mode are used. Internal solution consists of (in mM): 110 […], 10 CsCl, 20 EGTA, and 10 Hepes (pH adjusted to 7.2); and external solution contains (in mM): 60 NMDG, 80 NaCl, 4 KCl, 1 MgCl2, 2 CaCl2, 2 D-Glucose monohydrate, 10 Hepes (pH adjusted to 7.4 with NaOH).
After system flushing, testing compounds are dissolved in external solution containing 0.1% Pluronic F-127. The chip is moved into the measuring head and the instrument primes the chip with external and internal solutions. 10 l cells are added to the chip from a cell hotel, and a negative pressure of −50 mBar is applied to form a seal. Following treatment with seal enhancer solution and wash-off with external solution, negative pressure of −250 mbar is applied for 1 second to achieve the whole-cell configuration, followed by three washing steps in external solution. 20 µl of compounds is added to 40 µl in each well (1:3 dilution of compounds), and after mixing, 20 l is removed so the volume is retained at 40 ul. After approximately 13 minutes recordings, 20 µl/well of 2 uM TTX, or 333 uM Tetracaine (for Nav1.5) is added to achieve full block.
For voltage protocol, an holding potential of −50 mV is applied during the whole experiment. A depolarizing step is applied to −10 mV for 10 ms, followed by a hyperpolarization step to −150 mV for 20 ms to allow channel recovery from inactivation. A second depolarizing step is applied from −150 mV to −10 mV for 10 ms, where currents were measured to derive blocking effects of compounds. Inhibition is determined based on 7.5 min of compound incubation.
On the technique in general: In patch-clamp work, channel activity is measured electrically.

In assay [2] the target is T1, hNav1.7. Put plainly: Tritiated compound binding to membranes from cells heterologously expressing hNav1.7 and the β1 subunit (LBA). Particulars: competitive binding vs [3H]compound, membranes with hNav1.7 and β1 subunit; read-out: Nav1.7 LBA EVO IC50. The procedure:
Example 39A. Tritiated Compound Binding to Membranes Isolated from Cells that Heterologously Express hNav1.7 and the β1 Subunit
Preparation of membranes containing recombinantly expressed sodium channels: Frozen recombinant cell pellets were thawed on ice and diluted to 4 times the cell pellet weight with ice cold 50 mM Tris HCl, pH 7.4 buffer. The cell suspensions were homogenized on ice using a motorized glass dounce homogeniser. Homogenates were further diluted 8.4 times with ice cold 50 mM Tris HCl, pH 7.4 buffer and then centrifuged at 200×g at 4° C. for 15 min. The supernatants were collected and centrifuged at 10000×g at 4° C. for 50 min. The pellets were then re-suspended in 100 mM NaCl, 20 mM Tris HCl, pH 7.4 buffer containing 1% v/v protease inhibitors (Calbiochem) and re-homogenized on ice. The homogenized membranes were then processed through a syringe equipped with a 26 gauge needle. Protein concentrations were determined by Bradford Assay and the membranes were stored at −80° C.
Saturation experiments. A competitive NaV1.7 inhibitor having a methyl group was tritiated. Three tritiums were incorporated in place of methyl hydrogens to generate [^3H]compound. Binding of this radioligand was performed in 5 mL borosilicate glass test tubes at room temperature. Binding was initiated by adding membranes to increasing concentrations of [^3H]compound in 100 mM NaCl, 20 mM Tris HCl, pH 7.4 buffer containing 0.01% w/v bovine serum albumin (BSA) for 18 h. Non-specific binding was determined in the presence of 1 μM unlabeled compound. After 18 h, the reactants were filtered through GF/C glass fiber filters presoaked in 0.5% w/v polyethylene imine. Filters were washed with 15 mL ice cold 100 mM NaCl, 20 mM Tris HCl, pH7.4 buffer containing 0.25% BSA to separate bound from free ligand. [^3H]compound bound to filters was quantified by liquid scintillation counting.
Binding reactions were performed in 96-well polypropylene plates at room temperature for 18 h. In 360 μL, membranes were incubated with 100 pM [^3H]compound and increasing concentrations of Test Compound. Non-specific binding was defined in the presence of 1 μM unlabeled compound. Reactions were transferred and filtered through 96-well glass fiber/C filter plates presoaked with 0.5% polyethylene imine. The filtered reactions were washed 5 times with 200 μL ice cold buffer containing 0.25% BSA. Bound radioactivity was determined by liquid scintillation counting.
For saturation experiments, non-specific binding was subtracted from total binding to provide specific binding and these values were recalculated in terms of pmol ligand bound per mg protein. Saturation curves were constructed and dissociation constants were calculated using the single site ligand binding model: Beq=(Bmax*X)/(X+Kd), where Beq is the amount of ligand bound at equilibrium, Bmax is the maximum receptor density, Kd is the dissociation constant for the ligand, and X is the free ligand concentration. For competition studies percent inhibition was determined and IC50 values were calculated using a 4 parameter logistic model (% inhibition=(A+((B−A)/(1+((x/C)^D)))) using XLfit, where A and B are the maximal and minimum inhibition respectively, C is the IC50 concentration and D is the (Hill) slope.
Example 39B. Tritiated Compound Binding to Membranes Isolated from Cells that Heterologous Express hNav1.7 and the β1 Subunit
Following the procedure described in Example 39A, and making modifications as required to: centrifuge supernatants at 100000×g instead of 10000×g; re-suspend pellets in a buffer containing 0.01% BSA in addition to 100 mM NaCl, 20 mM Tris HCl, pH 7.4 buffer, and 1% v/v […]; and storing membranes at −80° C. in single use aliquots instead of pooled.
Saturation experiments: Following the procedure described in Example 243A, and making modifications as required to incubate [3H]compound for 3 hours instead of 18 hours. […]

pIC50: −log10 of the molar value.

As a reminder, the pIC50 is the IC50 on a negative log10 scale, so that one unit is a factor of ten. In the case of `COc1cc(-c2cc(F)cc(C(F)(F)F)c2)c(F)cc1N1C(=O)CO[C@@H]2CN(S(=O)(=O)Nc3ccon3)CC[C@H]21` [Example 5, (4aR,8aR)-1-(2,3′-difluoro-5-methoxy-5′-(trifluoromethyl)-[1,1′-biphenyl]-4-yl)-N-(isoxazol-3-yl)-2-oxohexahydro-1H-pyrido[3,4-b][1,4]oxazine-6(7H)-sulfonamide], the pIC50 in assay [1] is 8.55; in assay [2], 7.10.

In the case of `COc1cc(-c2cccc(OC(F)(F)F)c2)c(F)cc1N1C(=O)CO[C@@H]2CN(S(=O)(=O)Nc3ccon3)CC[C@H]21` [Example 29, (4aR,8aR)-1-(2-fluoro-5-methoxy-3′-(trifluoromethoxy)-[1,1′-biphenyl]-4-yl)-N-(isoxazol-3-yl)-2-oxohexahydro-1H-pyrido[3,4-b][1,4]oxazine-6(7H)-sulfonamide], the pIC50 in assay [1] is 8.66; in assay [2] it was 7.21.

Regarding `COc1cc(-c2cccc(C(F)(F)F)c2)c(F)cc1N1C(=O)CC[C@H]2CN(S(=O)(=O)Nc3ccon3)CCC21` (stereo in doubt) [Example 36, (4aS,8aS)-1-(2-fluoro-5-methoxy-3′-(trifluoromethyl)-[1,1′-biphenyl]-4-yl)-N-(isoxazol-3-yl)-2-oxooctahydro-1,6-naphthyridine-6(2H)-sulfonamide], the pIC50 in assay [1] is 8.66; in assay [2], 7.68.

Turning to `COc1cc(-c2cc(F)cc(C(F)(F)F)c2)c(F)cc1N1C(=O)CO[C@H]2CN(S(=O)(=O)Nc3ccon3)CC[C@@H]21` [Example 6, (4aS,8aS)-1-(2,3′-difluoro-5-methoxy-5′-(trifluoromethyl)-[1,1′-biphenyl]-4-yl)-N-(isoxazol-3-yl)-2-oxohexahydro-1H-pyrido[3,4-b][1,4]oxazine-6(7H)-sulfonamide], the pIC50 in assay [1] is 8.74; in assay [2], 7.28.

As for `COc1cc(-c2cccc(OC(F)(F)F)c2)c(F)cc1N1CCO[C@H]2CN(S(=O)(=O)Nc3ccon3)CC[C@@H]21` [Example 32, (4aS,8aS)-1-(2-fluoro-5-methoxy-3′-(trifluoromethoxy)-[1,1′-biphenyl]-4-yl)-N-(isoxazol-3-yl)hexahydro-1H-pyrido[3,4-b][1,4]oxazine-6(7H)-sulfonamide], the pIC50 in assay [1] was 7.96; in assay [2], 6.83.

Regarding `COc1cc(-c2cccc(C(F)F)c2)c(F)cc1N1C(=O)CO[C@H]2CN(S(=O)(=O)Nc3ccon3)CC[C@@H]21` [Example 16, (4aS,8aS)-1-(3′-(difluoromethyl)-2-fluoro-5-methoxy-[1,1′-biphenyl]-4-yl)-N-(isoxazol-3-yl)-2-oxohexahydro-1H-pyrido[3,4-b][1,4]oxazine-6(7H)-sulfonamide], the pIC50 was 7.31 in assay [1] and 5.86 in assay [2].

In the case of `COc1cc(-c2ccc(F)c(C(F)(F)F)c2)c(F)cc1N1C(=O)CO[C@@H]2CN(S(=O)(=O)Nc3ccon3)CC[C@H]21` [Example 1, (4aR,8aR)-1-(2,4′-difluoro-5-methoxy-3′-(trifluoromethyl)-[1,1′-biphenyl]-4-yl)-N-(isoxazol-3-yl)-2-oxohexahydro-1H-pyrido[3,4-b][1,4]oxazine-6(7H)-sulfonamide], the values for the pIC50 in assay [1] and in assay [2] were 8.95 and 7.35, respectively.

For the compound `COc1cc(-c2cccc(C(F)(F)F)c2)c(F)cc1N1CCO[C@H]2CN(S(=O)(=O)Nc3ccon3)CC[C@@H]21` [Example 26, (4aS,8aS)-1-(2-fluoro-5-methoxy-3′-(trifluoromethyl)-[1,1′-biphenyl]-4-yl)-N-(isoxazol-3-yl)hexahydro-1H-pyrido[3,4-b][1,4]oxazine-6(7H)-sulfonamide], the negative-log IC50 (pIC50) is 7.97 in assay [1] and 7.20 in assay [2].

For `COc1cc(-c2cccc(F)c2)c(F)cc1N1C(=O)CO[C@@H]2CN(S(=O)(=O)Nc3ccon3)CC[C@H]21` [Example 9, (4aR,8aR)-1-(2,3′-difluoro-5-methoxy-[1,1′-biphenyl]-4-yl)-N-(isoxazol-3-yl)-2-oxohexahydro-1H-pyrido[3,4-b][1,4]oxazine-6(7H)-sulfonamide], the figures for the pIC50 in assay [1] and in assay [2] were 7.71 and 5.70, respectively.

Turning to `COc1cc(-c2cccc(C(F)(F)F)c2)c(F)cc1N1CCO[C@@H]2CN(S(=O)(=O)Nc3ccon3)CC[C@H]21` [Example 25, (4aR,8aR)-1-(2-fluoro-5-methoxy-3′-(trifluoromethyl)-[1,1′-biphenyl]-4-yl)-N-(isoxazol-3-yl)hexahydro-1H-pyrido[3,4-b][1,4]oxazine-6(7H)-sulfonamide], the negative logarithm of the IC50 (pIC50) was 8.63 in assay [1] and 6.68 in assay [2].

Regarding `COc1cc(-c2cccc(OC(F)(F)F)c2)c(F)cc1N1CCO[C@@H]2CN(S(=O)(=O)Nc3ccon3)CC[C@H]21` [Example 31, (4aR,8aR)-1-(2-fluoro-5-methoxy-3′-(trifluoromethoxy)-[1,1′-biphenyl]-4-yl)-N-(isoxazol-3-yl)hexahydro-H-pyrido[3,4-b][1,4]oxazine-6(7H)-sulfonamide], the pIC50 in assay [1] is 8.22; in assay [2], 6.89.

In the case of `COc1cc(-c2cccc(C(F)(F)F)c2)c(F)cc1N1C(=O)OC[C@H]2CN(S(=O)(=O)Nc3ccon3)CC[C@@H]21` [Example 34, (4aS,8aS)-1-(2-fluoro-5-methoxy-3′-(trifluoromethyl)-[1,1′-biphenyl]-4-yl)-N-(isoxazol-3-yl)-2-oxohexahydro-2H-pyrido[4,3-d][1,3]oxazine-6(4H)-sulfonamide], the pIC50 in assay [1] was 6.71; in assay [2] it was 5.70.
